As usually defined, the IC50 is the concentration at which inhibition is half-maximal.

Structures are written as SMILES. Entries after “also recorded” stand apart in the source; their conditions may differ. Read-outs that look alike come from different tables or passages of the source. Bounds are passed on as bounds.

The source of these data is patent publication US20120083471A1, “Novel Compounds, Pharmaceutical Compositions Containing Same, Methods of Use for Same, and Methods for Preparing Same” (priority 2008, published 2012).

The subject of data set [1] is lean mice. Description: Acute single-dose FSG67 treatment of lean mice (body weight, food intake). It counts as in vivo. The following applies: single 20 mg/kg ip. The text has this: DIO and lean mouse models. All animal experimentation was done in accordance with guidelines on animal care and use as established by the Johns Hopkins University School of Medicine IACUC. DIO C57BL6J male mice were obtained from Jackson Laboratory (Bar Harbor, ME) and fed a synthetic diet comprised of 60% calories from fat, 20% from carbohydrate, and 20% from protein (5.2 kcal/g) post-weaning through the experimental procedures (D12492i, Research Diets, Inc., New Brunswick, N.J.). For lean animal studies, twelve-week old C57BL6J male mice (Jackson Laboratory, Bar Harbor, Me.) were fed rodent chow comprised of 13% calories from fat, 58% from carbohydrate, and 29% from protein (4.1 kcal/g) (Prolab RMH 2500, PMI Nutrition International Inc., Brentwood, Mo.). Mice were maintained in 12 hr light-dark cycle at 25° C. for 1 week for acclimatization prior to treatment. In all studies, FSG67 (FASgen, Inc., Baltimore, Md.) was dissolved in RPMI 1640 (Invitrogen, Carlsbad, Calif.).
For acute studies, 6 DIO or lean mice were treated with a single dose of FSG67 (20 mg/kg, i.p.) approximately 3 hrs past lights-on. Animal weights and food consumption were measured 18 h after treatment. Following euthanization, the hypothalmuses were harvested to measure orexigenic and anorexigenic neuropeptide gene expression. […] Body weight and food intake were measured daily. In one study, a cohort of mice was pair-fed with amounts consumed by the FSG67-treated animals and mice were monitored with indirect calorimetry (Oxymax Equal Flow System®, Columbus Instruments, Columbus, Ohio). Measurements of VO2 (ml/kg/hr) and VCO2 (ml/kg/hr) were performed and recorded every 15 min. The respiratory exchange ratio (RER) was calculated by Oxymax software, version 5.9, and is defined as ratio of VCO2 to VO2 33. […] Tissues were harvested immediately for RNA extraction; serum was collected and analyzed for glucose, cholesterol, and triglyceride measurements (Bioanalytics, Gaithersburg, Md.). […]

The next data set deals with 3T3-L1 adipocytes. Description: Acylglyceride synthesis in 3T3-L1 adipocytes ([14C]palmitate labelling, TLC). It counts as cell-based, mouse. The following applies: for IC50: Mus musculus, 3T3-L1 adipocytes 7 days post-differentiation, 18 h treatment, linear regression, n=3. The protocol:
3T3-L1 Adipocytes 3T3-L1 cells were differentiated into adipocytes as described 34. Seven days post-differentiation, cells were treated with FSG67 at indicated concentrations for 18 h, then labeled with [14C]palmitate for 2 h. Following Folch extraction, lipids were subjected to polar and non-polar thin-layer chromatography 35. Triglyceride and phosphatidylcholine fractions were quantified with phosphorimaging (Storm 840, Molecular Dynamics, Piscataway, N.J.).
Mouse 3T3-L1 adipocytes were used to test the effect FSG67 on acylglyceride synthesis in vitro. […] As phosphatidylcholine was the predominant phospholipid synthesized in the 3T3-L1 adipocytes, it is representative of overall cellular phospholipid synthesis. […] Note the decrease in lipid droplets in the FSG67 treated cells compared to vehicle treated controls. Thus, FSG67 inhibits cellular acylglyceride synthesis with an IC50 similar to its inhibition of GPAT activity in mitochondrial preparations.

Data set [2] deals with lean mice. Description: Intracerebroventricular FSG67 treatment of lean mice. It counts as in vivo, mouse. Conditions: for weight lost: within 24 h. Here is the method:
Chronic lateral cerebroventricle cannulas. For experiments requiring intracerebroventricular (i.c.v.) administration of compounds, mice were outfitted unilaterally with chronic indwelling cannulas aimed at the lateral cerebroventricle. After mice recovered from surgeries for one week, cannula placements were assessed by measuring food intake in response to i.c.v. neuropeptide Y (NPY, American Peptide Co., CA). Mice were given NPY (0.25 ηmol/2 μl injection) or sterile 0.9% saline vehicle via the i.c.v. cannula, and allowed 1-h access to grain-based pellets during the light phase. Mice that ate at least 0.5 g of food after NPY were used in the experiments. Eleven mice were given a 2 μL injection of RPMI-1640 without glucose (Cambrex, Md.) for vehicle control. Three days later, six mice received a 100 nmole dose of FSG67 in the vehicle while 5 mice received 320 nmoles of compound.
We administered FSG67 icy to determine whether GPAT inhibition acts centrally to reduce food intake. Lean mice were treated with FSG67 icy at doses 100 and 320 nmoles (approximately […] less than the 5 mg/kg single day systemic dose). Within 24 h, mice treated with 100 nmoles lost 0.75±0.4 g (p=0.016) while the 320 nmole group lost 1.8±0.3 g (p=0.0003); vehicle controls gained 0.43±0.1 g and 0.33±0.1 g respectively (FIG. 15a). The animal weight was regained within 48 h without a significant rebound (data not shown). […] Within 48 h, the animals began eating normally with slight hyperphagia in the 320 nmole group on days 3 and 4 (data not shown).

`CCCCCCCCCS(=O)(=O)Nc1ccccc1C(=O)O` [Compound 15g, 2-(Nonylsulfonamido)benzoic acid]: in the data set on lean mice [1] (lean mice), the food consumption was 1.4 ± 0.2 g and the “food consumption, % of vehicle control” value was 33%. Also, in the data set with lean mice [1] (lean or DIO mice), the overt toxicity entry was “No overt toxicity”. Besides, the “triglyceride / lipid droplet accumulation” value in the data set with 3T3-L1 adipocytes (3T3-L1 adipocytes, 48 h following treatment, photomicrographs, listed as FSG67) is “dose-dependent reduction; also recorded: reduction in lipid droplet accumulation”. The IC50 in the data set with 3T3-L1 adipocytes (read-out: IC50 for cellular triglyceride synthesis) was found to be 33.9 µM. Also, the IC50 in the data set with 3T3-L1 adipocytes (read-out: IC50 for phosphatidylcholine synthesis) is 36.3 µM. Besides, in the data set on lean mice [2] (100 nmoles icv), the weight lost is 0.75 ± 0.4 g. Moreover, in the data set with lean mice [2] (320 nmole icv), the chow intake was 2.5 ± 0.3 g and the weight lost was 1.8 ± 0.3 g. In addition, in the data set with lean mice [2] (100 and 320 nmole icv), the “mouse weight one day following treatment” value is on record as “significantly reduced”. Moreover, in the data set with lean mice [2] (100 vs 320 nmole icv, listed as FSG67), the “significant reduction in food intake” value is listed as “only occurred in the 320 nmole treatment group”. For the same compound, in the data set on lean mice [2] (icv, without significant rebound), the “time to regain animal weight” value is no more than 48 h.
